Target: T1, Recombinant human KIF18A (1-467 His-tagged) protein (Homo sapiens, UniProt Q8NI77)
T1 construct: Recombinant human KIF18A (1-467 His-tagged) protein; His; made in house
Test: KIF18A Enzyme Assay: microtubule-stimulated ATPase activity (ADP-Glo)
Type: biochemical
Conditions: 30 nM KIF18A, 30 μg/mL pig microtubules, 75 μM ATP, ADP-Glo luminescence
From the text: KIF18A Enzyme Assay: Microtubule-stimulated ATPase activity assay is used to measure KIF18A enzyme activity after treatment with compound. Compounds were 2-fold serially diluted in DMSO (Sigma Inc) over 22-point concentration range. Recombinant human KIF18A (1-467 His-tagged) protein was expressed using a baculovirus system and purified by affinity chromatography by Amgen Inc. Concentrations of KIF18A protein, microtubules (MT), and ATP in the reaction were optimized for standardized homogenous enzyme assay using ADP-Glo™ Kinase/ATPase Assay Kit (Promega Inc). The assay measures ADP formed from the ATPase reaction. Prepare reaction buffer [(15 mM Tris, pH 7.5 (Teknova Inc), 10 mM MgCl2 (IT Baker Inc), 0.01% Pluronic F-68 (Life Technologies Inc), 1 μM Taxol (Cytoskeleton Inc), and 30 μg/mL pig microtubules (Cytoskeleton Inc)]. Add compound and KIF18A protein (30 nM) to prepared reaction buffer and incubated for 15 minutes at room temperature, next add ATP (at Kin, 75 μM) to the reaction mixture and incubated for an additional 15 minutes at room temperature. Mix 5 μl of ADP-Glo™ Reagent and 2.5 μl of the reaction mixture and incubate for 40 minutes at room temperature. Add 10 μl ADP-Glo™ Detection Reagent and incubate for 40 minutes at room temperature. Read luminescence using EnVision microplate reader with ultra-luminescence module (Perkin Elmer Inc). Concentration-response curve-fitting and IC50 determination was performed using Genedata Screener Software (Standard 15.0.1, Genedata Inc) with a four-parameter logistic regression fit model.
Table A provides data for compounds exemplified in the present application and priority document thereof, as representative compounds of the present invention, as follows: chemical name (as named by either ACD software or ChemDraw (Professional 15.0)) and biological data (IC50 in μM). Ex. # refers to Example No.

T1 sequence (Q8NI77 1-467): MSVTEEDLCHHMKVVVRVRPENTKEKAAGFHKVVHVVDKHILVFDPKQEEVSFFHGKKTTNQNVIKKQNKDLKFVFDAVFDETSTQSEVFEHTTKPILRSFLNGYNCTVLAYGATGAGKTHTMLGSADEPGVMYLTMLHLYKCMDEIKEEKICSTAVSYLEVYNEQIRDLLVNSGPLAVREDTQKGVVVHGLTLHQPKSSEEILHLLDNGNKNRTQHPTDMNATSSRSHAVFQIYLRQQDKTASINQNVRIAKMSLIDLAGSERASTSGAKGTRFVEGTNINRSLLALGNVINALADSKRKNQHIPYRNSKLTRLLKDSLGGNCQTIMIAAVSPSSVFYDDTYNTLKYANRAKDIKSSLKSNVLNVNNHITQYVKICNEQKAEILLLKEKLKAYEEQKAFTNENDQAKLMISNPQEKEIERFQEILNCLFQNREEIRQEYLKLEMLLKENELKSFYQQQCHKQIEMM
T1 sequence (P02550 whole entry partner): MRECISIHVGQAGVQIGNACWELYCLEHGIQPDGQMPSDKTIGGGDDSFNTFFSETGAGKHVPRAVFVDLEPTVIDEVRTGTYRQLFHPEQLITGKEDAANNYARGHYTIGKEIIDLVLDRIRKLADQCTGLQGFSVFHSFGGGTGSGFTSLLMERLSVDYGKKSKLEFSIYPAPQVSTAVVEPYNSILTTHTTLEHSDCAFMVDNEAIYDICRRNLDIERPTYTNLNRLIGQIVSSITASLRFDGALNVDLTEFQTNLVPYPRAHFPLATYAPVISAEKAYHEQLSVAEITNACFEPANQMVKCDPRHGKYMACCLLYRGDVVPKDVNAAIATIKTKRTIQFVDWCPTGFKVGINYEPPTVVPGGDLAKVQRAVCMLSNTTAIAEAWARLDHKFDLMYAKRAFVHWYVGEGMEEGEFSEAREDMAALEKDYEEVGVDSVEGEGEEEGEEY
T1 sequence (P02554 whole entry partner): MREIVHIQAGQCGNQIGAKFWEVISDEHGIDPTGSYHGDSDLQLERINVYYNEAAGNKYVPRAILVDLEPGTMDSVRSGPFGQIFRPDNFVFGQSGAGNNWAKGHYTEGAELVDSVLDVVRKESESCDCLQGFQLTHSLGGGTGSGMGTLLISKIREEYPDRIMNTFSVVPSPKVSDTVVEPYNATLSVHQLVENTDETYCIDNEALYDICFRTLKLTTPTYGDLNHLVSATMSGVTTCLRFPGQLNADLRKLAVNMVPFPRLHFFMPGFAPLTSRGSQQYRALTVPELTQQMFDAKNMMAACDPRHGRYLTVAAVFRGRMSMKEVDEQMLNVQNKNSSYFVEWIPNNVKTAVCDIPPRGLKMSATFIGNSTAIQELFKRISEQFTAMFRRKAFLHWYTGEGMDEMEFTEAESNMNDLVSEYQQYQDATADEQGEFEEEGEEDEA

| SMILES | IC50 [nM] |
| --- | --- |
| CC(C)(C)NS(=O)(=O)c1cccc(NC(=O)c2ncc(NC(C)(CO)CO)nc2N2CCC3(CC2)CC3)n1 [Example 108, N-(6-(N-(tert-butyl)sulfamoyl)pyridin-2-yl)-5-((1,3-dihydroxy-2-methylpropan-2-yl)amino)-3-(6-azaspiro[2.5]octan-6-yl)pyrazine-2-carboxamide] | 87.8 |
| CC(C)(C)NS(=O)(=O)c1cccc(NC(=O)c2ncc(NC3(CO)CC3)nc2N2CCC3(CC2)CC3)n1 [Example 109, 3-(6-azaspiro[2.5]oct-6-yl)-5-((1-(hydroxymethyl)cyclopropyl)amino)-N-(6-((2-methyl-2-propanyl)sulfamoyl)-2-pyridinyl)-2-pyrazinecarboxamide] | 79.3 |
| CC(C)(C)NS(=O)(=O)c1cccc(NC(=O)c2ncc(C(C)(O)C(F)(F)F)nc2N2CCC3(CC2)CC3)n1 (stereo not drawn) [Example 110, N-(6-(N-(tert-butyl)sulfamoyl)pyridin-2-yl)-3-(6-azaspiro[2.5]octan-6-yl)-5-(1,1,1-trifluoro-2-hydroxypropan-2-yl)pyrazine-2-carboxamide] | 260 |
| CC(C)(CO)Nc1cnc(C(=O)Nc2cc(Cl)cc(N3CCOCC3)n2)c(N2CCC3(CC2)CC3)n1 [Example 113, 3-(6-azaspiro[2.5]oct-6-yl)-N-(4-chloro-6-(4-morpholinyl)-2-pyridinyl)-5-((1-hydroxy-2-methyl-2-propanyl)amino)-2-pyrazinecarboxamide] | 112 |
| Cc1cc(NC(=O)c2ncc(NC(C)(C)CO)nc2N2CCC3(CC2)CC3)nc(N2CCOCC2)c1 [Example 114, 3-(6-azaspiro[2.5]octan-6-yl)-5-((1-hydroxy-2-methyl-2-propanyl)amino)-N-(4-methyl-6-(4-morpholinyl)-2-pyridinyl)-2-pyrazinecarboxamide] | 178 |
| CC(CO)(CO)Nc1cnc(C(=O)Nc2cccc(N3CCOCC3)n2)c(N2CCC3(CC2)CC3)n1 [Example 115, 3-(6-azaspiro[2.5]octan-6-yl)-5-((1,3-dihydroxy-2-methyl-2-propanyl)amino)-N-(6-(4-morpholinyl)-2-pyridinyl)-2-pyrazinecarboxamide] | 106 |
| COc1cc(NC(=O)c2ncc(NC(C)(C)CO)nc2N2CCC3(CC2)CC3)nc(N2CCOCC2)c1 [Example 116, 3-(6-azaspiro[2.5]octan-6-yl)-5-((1-hydroxy-2-methyl-2-propanyl)amino)-N-(4-methoxy-6-(4-morpholinyl)-2-pyridinyl)-2-pyrazinecarboxamide] | 1160 |
| CC(C)(CO)Nc1cnc(C(=O)Nc2cc(C#N)cc(N3CCOCC3)n2)c(N2CCC3(CC2)CC3)n1 [Example 117, 3-(6-azaspiro[2.5]octan-6-yl)-N-(4-cyano-6-(4-morpholinyl)-2-pyridinyl)-5-((1-hydroxy-2-methyl-2-propanyl)amino)-2-pyrazinecarboxamide] | 138 |
| CC(C)(CO)Nc1cnc(C(=O)Nc2cc(C3CC3)cc(N3CCOCC3)n2)c(N2CCC3(CC2)CC3)n1 [Example 118, 3-(6-azaspiro[2.5]octan-6-yl)-N-(4-cyclopropyl-6-(4-morpholinyl)-2-pyridinyl)-5-((1-hydroxy-2-methyl-2-propanyl)amino)-2-pyrazinecarboxamide] | 540 |
| CC(C)(C)NS(=O)(=O)c1cccc(NC(=O)c2ncc(N3C(=O)OCC3(C)C)nc2N2CCC3(CC2)CC3)n1 [Example 119, 3-(6-azaspiro[2.5]octan-6-yl)-5-(4,4-dimethyl-2-oxo-1,3-oxazolidin-3-yl)-N-(6-((2-methyl-2-propanyl)sulfamoyl)-2-pyridinyl)-2-pyrazinecarboxamide] | 817 |
| CC(C)(CO)Nc1cnc(C(=O)Nc2cccc(N3CCO[C@H](CO)C3)n2)c(N2CCC3(CC2)CC3)n1 [Example 120, 3-(6-azaspiro[2.5]octan-6-yl)-N-(6-((2S)-2-(hydroxymethyl)-4-morpholinyl)-2-pyridinyl)-5-((1-hydroxy-2-methyl-2-propanyl)amino)-2-pyrazinecarboxamide] | 176 |
| C[C@@H]1CN(c2cccc(NC(=O)c3ncc(NS(C)(=O)=O)nc3N3CCC4(CC3)CC4)n2)CCO1 [Example 121, 3-(6-azaspiro[2.5]octan-6-yl)-N-(6-((2R)-2-methyl-4-morpholinyl)-2-pyridinyl)-5-((methylsulfonyl)amino)-2-pyrazinecarboxamide] | 642 |
| CC(C)(CO)Nc1ccc(C(=O)Nc2cccc(-c3ncco3)n2)c(N2CCC3(CC2)CC3)n1 [Example 122, 2-(6-azaspiro[2.5]oct-6-yl)-6-((2-hydroxy-1,1-dimethylethyl)amino)-N-(6-(1,3-oxazol-2-yl)-2-pyridinyl)-3-pyridinecarboxamide] | 316 |
| CC(C)(C)NS(=O)(=O)c1cccc(NC(=O)c2ccc(NC(C)(C)CO)nc2N2CCC3(CC2)CC3)n1 [Example 123, 2-(6-azaspiro[2.5]oct-6-yl)-N-(6-(tert-butylsulfamoyl)-2-pyridinyl)-6-((2-hydroxy-1,1-dimethylethyl)amino)-3-pyridinecarboxamide] | 64 |
| COC1CCN(c2cccc(NC(=O)c3ccc(NC(C)(C)CO)nc3N3CCC4(CC3)CC4)n2)C1 (stereo not drawn) [Example 124, 6-((1-hydroxy-2-methylpropan-2-yl)amino)-N-(6-(3-methoxypyrrolidin-l-yl)pyridin-2-yl)-2-(6-azaspiro[2.5]octan-6-yl)nicotinamide] | 407 |
| CC(C)(CO)Nc1ccc(C(=O)Nc2cccc(N3CCCC3)n2)c(N2CCC3(CC2)CC3)n1 [Example 125, 2-(6-azaspiro[2.5]oct-6-yl)-6-((2-hydroxy-1,1-dimethylethyl)amino)-N-(6-(1-pyrrolidinyl)-2-pyridinyl)-3-pyridinecarboxamide] | 136 |
| CC1CN(c2cccc(NC(=O)c3ccc(NC(C)(C)CO)nc3N3CCC4(CC3)CC4)n2)CCO1 (stereo not drawn) [Example 126, 6-((1-hydroxy-2-methylpropan-2-yl)amino)-N-(6-(2-methylmorpholino)pyridin-2-yl)-2-(6-azaspiro[2.5]octan-6-yl)nicotinamide] | 60.2 |
| CC(C)(CO)Nc1ccc(C(=O)Nc2cccc(N3CCOCC3)n2)c(N2CCC3(CC2)CC3)n1 [Example 127, 2-(6-azaspiro[2.5]oct-6-yl)-6-((2-hydroxy-1,1-dimethylethyl)amino)-N-(6-(4-morpholinyl)-2-pyridinyl)-3-pyridinecarboxamide] | 52.5 |
| CC1(C)CCN(c2cccc(NC(=O)c3ccc(NC(C)(C)CO)nc3N3CCC4(CC3)CC4)n2)C1 [Example 128, 2-(6-azaspiro[2.5]oct-6-yl)-N-(6-(3,3-dimethyl-l-pyrrolidinyl)-2-pyridinyl)-6-((2-hydroxy-1,1-dimethylethyl)amino)-3-pyridinecarboxamide] | 95.3 |
| CC(C)(CO)Nc1ccc(C(=O)Nc2cccc(N3CCC(F)(F)C3)n2)c(N2CCC3(CC2)CC3)n1 [Example 129, 2-(6-azaspiro[2.5]oct-6-yl)-N-(6-(3,3-difluoro-l-pyrrolidinyl)-2-pyridinyl)-6-((2-hydroxy-1,1-dimethylethyl)amino)-3-pyridinecarboxamide] | 83.4 |
| CC(C)(CO)Nc1ccc(C(=O)Nc2cccc(N3CCOC(C)(C)C3)n2)c(N2CCC3(CC2)CC3)n1 [Example 130, 2-(6-azaspiro[2.5]oct-6-yl)-N-(6-(2,2-dimethyl-4-morpholinyl)-2-pyridinyl)-6-((2-hydroxy-1,1-dimethylethyl)amino)-3-pyridinecarboxamide] | 172 |
